Results reported in patent publication US20040097515A1, “Antimicrobial drug reduced in effect on heart” (priority 2001, published 2004).
“Also recorded” adds a separate entry of the source.

Legend:
[1] = Japanese Journal of Chemotherapy, Volume 47, 1999; cited from earlier work
[2] = Japanese Journal of Chemotherapy, Volume 47, 1999; cited from earlier work; remark: listed apart in the source
[3] = test system: P. aeruginosa, 32104; assay: Antimicrobial activity, standard method of Japanese Society of Chemotherapy; format: cell-based
Experimental: (§1) The antimicrobial activity of the thus-obtained compound was measured by means of the standard method of Japanese Society of Chemotherapy.

[4] = test system: P. vulgaris 08601; assay: as above; format: cell-based
Experimental: as §1

[5] = test system: P. aeruginosa, 32121; assay: as above; format: cell-based
Experimental: as §1

[6] = test system: S. epidermidis, 56500; assay: as above; format: cell-based
Experimental: as §1

[7] = test system: S. aureus, FDA 209-P; assay: as above; format: cell-based
Experimental: as §1

[8] = test system: S. marcescens, 101000; assay: as above; format: cell-based
Experimental: as §1

[9] = test system: E. faecalis, 19433; assay: as above; format: cell-based
Experimental: as §1

[10] = test system: E. Coli, NIHJ; assay: as above; format: cell-based
Experimental: as §1

[11] = test system: guinea pig right ventricular myocardium sample; assay: APD prolonging effect, action potential of guinea pig right ventricular myocardium sample; format: cell-based; conditions: for relative strength of APD prolonging effect, Tukey test / APD prolonging effect (rate of change in APD90 with respect to the initial value), Average: after 60 minute-exposure; for relative strength of APD prolonging effect, Tukey test: statistically significant difference; for relative strength of APD prolonging effect: at each of the measured points; for myocardial action potential duration, effect of exposure: exposed for 10 minutes or more, paired t-test; for APD prolonging effect (rate of change in APD90 with respect to the initial value), Average: Dose 100 (μM)
Experimental: Slc: Hartley male guinea pigs (body weight: 322 to 667 g each) were employed as subjects.
Each of compound (I), compound (II), and gatifloxacin was dissolved in an aqueous 1% lactic acid solution, to thereby prepare a 10 mM solution. The resultant solution was employed as a drug solution.
Measurement of action potential was performed as follows. Specifically, the heart was quickly removed from each of the guinea pigs, and in a nutrition solution (Krebs-Henseleit) aerated with 95% O2+5% CO2 at room temperature, the right ventricular free wall was dissected to thereby prepare a myocardium sample. By use of an injection needle and platinum bipolar electrodes for electric stimulation, the sample was horizontally fixed onto a silicon block within a 20 ml organ bath (maintained at 36.5±0.5° C.) perfused with the nutrition solution aerated with 95% O2+5% CO2. During the test, the sample was electrically stimulated at a frequency of 1 Hz by means of rectangular pulses (voltage: about 1.3 times the threshold at which contraction of the sample is initiated, duration: 1 msec) provided from an electrostimulator via the platinum bipolar electrodes. The action potential of the cells was measured via glass microelectrodes (electrode resistance: 5 to 30 MΩ) which were filled with a 3 M KCl solution and connected to an amplifier for microelectrodes, and the action potential was recorded and analyzed by use of a computer. After electrical stimulation of the sample was continued for one hour or more, the action potential was measured before administration of the drug solution, and 10, 20, 30, 40, 50, and 60 minutes after administration of the drug solution. At each point in time, the action potential was measured and recorded in triplicate, and the average of the measured potentials was taken as the value for that point in time.
The drug solution (200 μL) was added to the 20 mL organ bath by use of a micropipette (final concentration of the drug solution in the bath: 100 μM). On the basis of the thus-measured action potential waveform, resting membrane potential (RMP), overshoot (OS), action potential amplitude (APA), action potential durations at 20%, 50%, and 90% repolarization (APD20, APD50, and APD90), and maximum rising velocity (Vmax) were obtained.
In each of the groups, the paired t-test was performed on the initial value of APD90 and on the action potential measured at each of the aforementioned points in time. Also, time-course variance analysis was performed, and the action potential after the 60 minute-exposure of the sample to the drug solution was subjected to the Tukey test, to thereby perform comparison between the groups. The level of significance was set at 5%, two-sided.

[12] = 100 μM, Time 10 (minutes after administration)
[13] = 100 μM, Time 20 (minutes after administration)
[14] = 100 μM, Time 30 (minutes after administration)
[15] = 100 μM, Time 40 (minutes after administration)
[16] = 100 μM, Time 50 (minutes after administration)
[17] = 100 μM, Time 60 (minutes after administration)
[18] = Time 0, initial value before administration of the drug solution

| SMILES | pharmacokinetic action in the body, difference between the antipodes [1] | antimicrobial activity, difference between the antipodes [2] | myocardial action potential duration (APD90), Average [11, 12] | myocardial action potential duration (APD90), Average [11, 13] | myocardial action potential duration (APD90), Average [11, 14] | myocardial action potential duration (APD90), Average [11, 15] | myocardial action potential duration (APD90), Average [11, 16] | myocardial action potential duration (APD90), Average [11, 17] | relative strength of APD prolonging effect, Tukey test ([11]; 100 μM) | relative strength of APD prolonging effect ([11]; 100 μM) | myocardial action potential duration, effect of exposure ([11]; 100 μM) | APD prolonging effect (rate of change in APD90 with respect to the initial value), Average [11] | myocardial action potential duration (APD90), Average [11, 18] | also measured |
| --- | --- | --- | --- | --- | --- | --- | --- | --- | --- | --- | --- | --- | --- | --- |
| COc1c(N2CCN[C@@H](C)C2)c(F)cc2c(=O)c(C(=O)O)cn(C3CC3)c12 [Compound (I), 1-Cyclopropyl-6-fluoro-1,4-dihydro-8-methoxy-7-{3-(S)-methylpiperazin-1-yl}-4-oxoquinoline-3-carboxylic acid] | no great difference | no great difference | 175.7500 | 180.2217 | 184.2600 | 190.6275 | 192.0675 | 193.5025 | compound (II)>gatifloxacin>compound (I) | compound (II)>gatifloxacin>compound (I) | significantly prolonged | 11.2206 | 170.3200 | antimicrobial activity [3]: 0.20; antimicrobial activity [4]: 0.006; antimicrobial activity [5]: 0.10; antimicrobial activity [6]: 0.20; antimicrobial activity [7]: 0.05; antimicrobial activity [8]: 0.10; antimicrobial activity [9]: 0.39; antimicrobial activity [10]: ≦0.003; strength of APD prolonging effect compared with gatifloxacin and the antipode ([11]; 100 μM): significantly lower APD prolonging effect; also recorded: lower than that of the prolonging effect of gatifloxacin or compound (II) |
| COc1c(N2CCN[C@H](C)C2)c(F)cc2c(=O)c(C(=O)O)cn(C3CC3)c12 [Compound (II), 1-Cyclopropyl-6-fluoro-1,4-dihydro-8-methoxy-7-{3-(R)-methylpiperazin-1-yl}-4-oxoquinoline-3-carboxylic acid] | no great difference | no great difference | 185.9917 | 191.9500 | 194.2750 | 205.5900 | 203.1350 | 206.9400 | compound (II)>gatifloxacin>compound (I) | compound (II)>gatifloxacin>compound (I) | significantly prolonged | 17.1760 | 176.1567 |  |
| COc1c(N2CCNC(C)C2)c(F)cc2c(=O)c(C(=O)O)cn(C3CC3)c12 (stereo not shown) [Gatifloxacin] |  |  | 180.6120 | 184.9200 | 192.2467 | 190.8950 | 201.5533 | 196.4925 | compound (II)>gatifloxacin>compound (I) | compound (II)>gatifloxacin>compound (I) | significantly prolonged | 13.7789 | 174.8600 |  |
